Laboratory results as given in patent US10253027B2, “Aryl lactam kinase inhibitors” (Bristol-Myers Squibb Company, priority 2013, dated 2019).

Target: T1, GST-Xa-hAAK1 (Homo sapiens, UniProt Q2M2I8)
T1 construct: made in house
Experiment: AAK1 Kinase Assay
Type: biochemical
Settings: IC50 (nM), ATP 22 μM; 3 hours at room temperature; Caliper LabChip 3000
Description: The assays were performed in U-bottom 384-well plates. […] The reactions were initiated by the combination of bacterially expressed, GST-Xa-hAAK1 with substrates and test compounds. The reactions were incubated at room temperature for 3 hours and terminated by adding 60 μl of 35 mM EDTA buffer to each sample. The reactions were analyzed on the Caliper LabChip 3000 (Caliper, Hopkinton, Mass.) by electrophoretic separation of the fluorescent substrate and phosphorylated product. […] Compounds were dissolved at 10 mM in dimethylsulfoxide (DMSO) and evaluated at eleven concentrations. IC50 values were derived by non-linear regression analysis.

T1 sequence (Q2M2I8 whole entry): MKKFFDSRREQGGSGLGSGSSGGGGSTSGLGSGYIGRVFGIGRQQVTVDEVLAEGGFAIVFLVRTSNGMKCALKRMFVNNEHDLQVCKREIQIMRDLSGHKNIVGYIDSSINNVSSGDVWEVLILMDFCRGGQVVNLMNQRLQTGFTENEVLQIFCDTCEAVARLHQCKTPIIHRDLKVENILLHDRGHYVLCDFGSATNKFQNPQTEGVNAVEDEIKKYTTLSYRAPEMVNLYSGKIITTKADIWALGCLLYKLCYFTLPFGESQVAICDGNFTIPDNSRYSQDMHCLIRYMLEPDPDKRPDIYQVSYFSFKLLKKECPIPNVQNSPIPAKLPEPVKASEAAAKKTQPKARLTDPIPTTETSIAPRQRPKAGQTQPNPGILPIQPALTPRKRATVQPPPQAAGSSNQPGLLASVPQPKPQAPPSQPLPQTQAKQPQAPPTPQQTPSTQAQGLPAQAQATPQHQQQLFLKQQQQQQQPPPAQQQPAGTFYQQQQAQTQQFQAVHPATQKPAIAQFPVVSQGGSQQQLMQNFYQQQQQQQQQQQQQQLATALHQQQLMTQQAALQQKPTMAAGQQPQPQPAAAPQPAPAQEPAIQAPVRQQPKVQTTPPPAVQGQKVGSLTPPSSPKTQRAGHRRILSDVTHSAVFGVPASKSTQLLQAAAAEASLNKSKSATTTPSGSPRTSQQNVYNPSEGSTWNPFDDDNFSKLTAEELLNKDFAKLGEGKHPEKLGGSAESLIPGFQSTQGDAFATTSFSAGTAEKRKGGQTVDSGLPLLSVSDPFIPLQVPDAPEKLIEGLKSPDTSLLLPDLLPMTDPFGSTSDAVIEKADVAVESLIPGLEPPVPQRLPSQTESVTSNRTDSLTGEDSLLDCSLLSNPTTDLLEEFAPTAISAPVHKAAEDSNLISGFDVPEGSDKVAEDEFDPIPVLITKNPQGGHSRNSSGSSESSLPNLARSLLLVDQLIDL

IC50 [nM]	SMILES
7320	COc1cc(NC(=O)C(CC(C)C)N[C@H]2CC[C@H](N)CC2)ccc1-c1cnco1 (stereo partly drawn) [Example 31, 2-(trans-4-Aminocyclohexylamino)-N-(3-methoxy-4-(oxazol-5-yl)phenyl)-4-methylpentanamide]
1140	COc1cc(NC(=O)C(CC(C)C)NC2CNC2)ccc1-c1cnco1 (stereo not drawn) [Example 32, 2-(Azetidin-3-ylamino)-N-(3-methoxy-4-(oxazol-5-yl)phenyl)-4-methylpentanamide]
2100	COc1cc(NC(=O)C(CC(C)C)N2CCC(N)CC2)ccc1-c1cnco1 (stereo not drawn) [Example 33, 2-(4-Aminopiperidin-1-yl)-N-(3-methoxy-4-(oxazol-5-yl)phenyl)-4-methylpentanamide]
202	COc1cc(NC(=O)[C@H](O)CC(C)C)ccc1-c1cnco1 [Example 34, (R)-2-Hydroxy-N-(3-methoxy-4-(oxazol-5-yl)phenyl)-4-methylpentanamide]
83	COc1cc(NC(=O)C(CN)CC(C)C)ccc1-c1cnco1 (stereo not drawn) [Example 35, 2-(Aminomethyl)-N-(3-methoxy-4-(oxazol-5-yl)phenyl)-4-methylpentanamide]
460	CC(C)C[C@@H](N)C(=O)Nc1ccc(-c2cnco2)c(F)c1 [Example 40, (R)-2-Amino-N-(3-fluoro-4-(oxazol-5-yl)phenyl)-4-methylpentanamide]
45	CC(C)C[C@@H](N)C(=O)Nc1ccc(-c2cn[nH]c2)c(OC(F)F)c1 [Example 41, 2-Amino-N-(3-(difluoromethoxy)-4-(1H-pyrazol-4-yl)phenyl)-4-methylpentanamide]
860	CC(C)C[C@@H](N)C(=O)Nc1ccc(-c2cnco2)c(N(C)C)c1 [Example 42, 2-Amino-N-(3-(dimethylamino)-4-(oxazol-5-yl)phenyl)-4-methylpentanamide]
260	COc1cc(NC(=O)[C@H](N)CC(C)C)ccc1-c1ccnc(Cl)c1 [Example 43, (R)-2-Amino-N-(4-(2-chloropyridin-4-yl)-3-methoxyphenyl)-4-methylpentanamide]
140	COc1cnccc1-c1ccc(NC(=O)[C@H](N)CC(C)C)cc1 [Example 44, (R)-2-Amino-N-(4-(3-methoxypyridin-4-yl)phenyl)-4-methylpentanamide]
150	COc1cc(NC(=O)C(N)CC(C)C)ccc1-c1ccnc(N)c1 (stereo not drawn) [Example 45, 2-Amino-N-(4-(2-aminopyridin-4-yl)-3-methoxyphenyl)-4-methylpentanamide]
2200	COc1cc(NC(=O)[C@H](N)CC(C)C)ccc1-c1cnc2cccnn12 [Example 46, (R)-2-amino-N-(4-(imidazo[1,2-b]pyridazin-3-yl)-3-methoxyphenyl)-4-methylpentanamide]
440	COc1cc(NC(=O)[C@H](N)CC(C)C)ccc1-c1cnc2ccc(Cl)nn12 [Example 47, (R)-2-Amino-N-(4-(6-chloroimidazo[1,2-b]pyridazin-3-yl)-3-methoxyphenyl)-4-methylpentanamide]
450	CNc1cc(-c2ccc(NC(=O)C(N)CC(C)C)cc2OC)ccn1 (stereo not drawn) [Example 48, 2-Amino-N-(3-methoxy-4-(2-(methylamino)pyridin-4-yl)phenyl)-4-methylpentanamide]
90	CNc1ccc2ncc(-c3ccc(NC(=O)[C@H](N)CC(C)C)cc3OC)n2n1 [Example 49, (R)-2-Amino-N-(3-(methoxy)-4-(6-(methylamino)imidazo[1,2-b]pyridazin-3-yl)phenyl)-4-methylpentanamide]
340	CC[C@@H](N)C(=O)Nc1ccc(-c2cnco2)c(OC)c1 [Example 50, (R)-2-Amino-N-(3-methoxy-4-(oxazol-5-yl)phenyl)butanamide]
590	CCC[C@H](N)C(=O)Nc1ccc(-c2cnco2)c(OC)c1 [Example 51, (S)-2-Amino-N-(3-methoxy-4-(oxazol-5-yl)phenyl)pentanamide]
530	CCCC[C@@H](N)C(=O)Nc1ccc(-c2cnco2)c(OC)c1 [Example 52, (R)-2-Amino-N-(3-methoxy-4-(oxazol-5-yl)phenyl)hexanamide]
270	CCCC[C@H](N)C(=O)Nc1ccc(-c2cnco2)c(OC)c1 [Example 53, (S)-2-Amino-N-(3-methoxy-4-(oxazol-5-yl)phenyl)hexanamide]
720	COc1cc(NC(=O)[C@H](N)CCSC)ccc1-c1cnco1 [Example 54, (R)-2-Amino-N-(3-methoxy-4-(oxazol-5-yl)phenyl)-4-(methylthio)butanamide]
130	CC[C@@H](C)[C@@H](N)C(=O)Nc1ccc(-c2cnco2)c(OC)c1 [Example 55, (2R,3R)-2-Amino-N-(3-methoxy-4-(oxazol-5-yl)phenyl)-3-methylpentanamide]

IC50 [nM]	SMILES
950	COc1cc(NC(=O)[C@H](N)CC2CCCCC2)ccc1-c1cnco1 [Example 56, (R)-2-Amino-3-cyclohexyl-N-(3-methoxy-4-(oxazol-5-yl)phenyl)propanamide]
780	COc1cc(NC(=O)C2CNC(=O)N2)ccc1-c1cnco1 (stereo not drawn) [Example 57, N-(3-Methoxy-4-(oxazol-5-yl)phenyl)-2-oxoimidazolidine-4-carboxamide]
4400	CNC1(C(=O)Nc2ccc(-c3cnco3)c(OC)c2)CC1 [Example 58, N-(3-Methoxy-4-(oxazol-5-yl)phenyl)-1-(methylamino)cyclopropanecarboxamide]
2400	COc1cc(NC(=O)CN2CCCC2=O)ccc1-c1cnco1 [Example 59, N-(3-Methoxy-4-(oxazol-5-yl)phenyl)-2-(2-oxopyrrolidin-1-yl)acetamide]
210	COc1cc(NC(=O)[C@@H](CC(C)C)NCc2ccc(Cl)cc2)ccc1-c1cnco1 [Example 60, (R)-2-((4-Chlorobenzyl)amino)-N-(3-methoxy-4-(oxazol-5-yl)phenyl)-4-methylpentanamide]
72	COc1cc(NC(=O)[C@@H](CC(C)C)NCc2cccn2C)ccc1-c1cnco1 [Example 61, (R)—N-(3-Methoxy-4-(oxazol-5-yl)phenyl)-4-methyl-2-(((1-methyl-1H-pyrrol-2-yl)methyl)amino)pentanamide]
220	COc1cc(NC(=O)[C@@H](CC(C)C)NCc2ccccc2O)ccc1-c1cnco1 [Example 62]
540	COc1cc(NC(=O)[C@@H](CC(C)C)NCc2ccc(C)cc2)ccc1-c1cnco1 [Example 63, (R)—N-(3-Methoxy-4-(oxazol-5-yl)phenyl)-4-methyl-2-((4-methylbenzyl)amino)pentanamide]
150	COc1cc(NC(=O)[C@@H](CC(C)C)NCc2cnn(C)c2)ccc1-c1cnco1 [Example 64, (R)—N-(3-Methoxy-4-(oxazol-5-yl)phenyl)-4-methyl-2-(((1-methyl-1H-pyrazol-4-yl)methyl)amino)pentanamide]
370	COc1cc(NC(=O)[C@@H](CC(C)C)NCc2ccsc2)ccc1-c1cnco1 [Example 65, (R)—N-(3-Methoxy-4-(oxazol-5-yl)phenyl)-4-methyl-2-((thiophen-3-ylmethyl)amino)pentanamide]
110	COc1cc(NC(=O)[C@@H](CC(C)C)NCc2sccc2C)ccc1-c1cnco1 [Example 66, (R)—N-(3-Methoxy-4-(oxazol-5-yl)phenyl)-4-methyl-2-(((3-methylthiophen-2-yl)methyl)amino)pentanamide]
260	COc1cc(NC(=O)[C@@H](CC(C)C)NCc2csnn2)ccc1-c1cnco1 [Example 67, (R)-2-(((1,2,3-Thiadiazol-4-yl)methyl)amino)-N-(3-methoxy-4-(oxazol-5-yl)phenyl)-4-methylpentanamide]
67	COc1cc(NC(=O)[C@@H](CC(C)C)NS(C)(=O)=O)ccc1-c1cnco1 [Example 68, (R)—N-(3-Methoxy-4-(oxazol-5-yl)phenyl)-4-methyl-2-(methylsulfonamido)pentanamide]
280	CCS(=O)(=O)N[C@H](CC(C)C)C(=O)Nc1ccc(-c2cnco2)c(OC)c1 [Example 69, (R)-2-(Ethylsulfonamido)-N-(3-methoxy-4-(oxazol-5-yl)phenyl)-4-methylpentanamide]
310	CCCS(=O)(=O)N[C@H](CC(C)C)C(=O)Nc1ccc(-c2cnco2)c(OC)c1 [Example 70, (R)—N-(3-Methoxy-4-(oxazol-5-yl)phenyl)-4-methyl-2-(propylsulfonamido)pentanamide]
400	COc1cc(NC(=O)[C@@H](CC(C)C)NS(=O)(=O)c2ccccc2)ccc1-c1cnco1 [Example 71, (R)—N-(3-methoxy-4-(oxazol-5-yl)phenyl)-4-methyl-2-(phenylsulfonamido)pentanamide]
1300	COc1cc(NC(=O)[C@@H](CC(C)C)NS(=O)(=O)Cc2ccccc2)ccc1-c1cnco1 [Example 72, (R)—N-(3-Methoxy-4-(oxazol-5-yl)phenyl)-4-methyl-2-(phenylmethylsulfonamido)pentanamide]
1500	COc1cc(NC(=O)[C@@H]2CCCCN2)ccc1-c1cnco1 [Example 73, (S)—N-(3-Methoxy-4-(oxazol-5-yl)phenyl)piperidine-2-carboxamide]
680	COc1cc(NC(=O)[C@H](N)CC(C)(C)C)ccc1-c1cnco1 [Example 74, (R)-2-Amino-N-(3-methoxy-4-(oxazol-5-yl)phenyl)-4,4-dimethylpentanamide]
5100	COc1cc(NC(=O)[C@H](N)CO)ccc1-c1cnco1 [Example 75, (R)-2-Amino-3-hydroxy-N-(3-methoxy-4-(oxazol-5-yl)phenyl)propanamide]
110	COc1cc(NC(=O)C(N)CCC(F)(F)F)ccc1-c1cnco1 (stereo not drawn) [Example 76, 2-Amino-5,5,5-trifluoro-N-(3-methoxy-4-(oxazol-5-yl)phenyl)pentanamide]
